The values that follow are results of earlier work, collected in patent US5891465A, “Delivery of biologically active material in a liposomal formulation for administration into the mouth” (BioZone Laboratories, Inc., priority 1996, dated 1999).

SMILES strings stand for the structures.

For data set [1] the following is noted: tablets under the tongue.
The conditions of data set [2]: tablet for absorption through the buccal mucosa.

Regarding `O=[N+]([O-])OCC(CO[N+](=O)[O-])O[N+](=O)[O-]` [nitroglycerin], the onset result in data set [1] was “rapid onset”. `C[C@]12CCC(=O)C=C1CC[C@@H]1[C@@H]2CC[C@@]2(C)[C@H]1CC[C@]2(C)O` [methyltestosterone]: the “androgenic activity relative to oral tablets” value in data set [2] is “twice the androgenic activity”.
